Data taken from patent US8309068B2, “Isolated polypeptides and methods of improving muscle strength” (Myostin Therapeutics Pty Ltd., priority 2006, dated 2012).
Where no end group is shown, it is not given here.

How the values were obtained:
satellite cells [1] = test: Single muscle fibre satellite cell activation assay (PCNA labeling); type: cell-based, mice
Method: Single fibres were isolated as previously described Rosenblatt et al., (1995). Briefly, 1 and 24 month old wild-type mice were euthanized by CO2 gas followed by cervical dislocation. TA were dissected out and digested in 0.2% (w/v) type 1A collagenase (>260 CDU/mg, Sigma) in Dulbecco's modified Eagle medium (DMEM) (Invitrogen) for 60 minutes at 37° C. Muscles were transferred to DMEM +10% horse serum (HS) +0.5% chicken embryo extract (CEE) and fibres were separated by gentle trituration. Isolated fibres were transferred to 4 well chamber slides (Becton Dickinson) coated with 10% matrigel (Becton Dickinson) and fixed with 100% ice cold methanol for 10 minutes after culturing up to 72 hours at 37° C. in 5% CO2.
Proliferating Cell Nuclear Antigen (PCNA) is expressed in cells that are actively undergoing cell cycle but not in quiescent cells. […] However, upon activation, satellite cells are activated to express PCNA and regenerate the muscle by replenishing the muscle fibres. Thus PCNA is a very reliable antigen to marker for the activated satellite cells.
In order to determine the effect of myostatin antagonists on satellite cell activation, single muscle fibres from TA muscle of young (1 month) or old (24 month) wild type mice were cultured in presence of 5 μg/ml of myostatin antagonist 320, 310 or 300, in culture media for 24, 48 and 72 hours and fixed with methanol and washed in PBS. The fixed fibres were permeabilised in 0.5% TritonX-100 in PBS for 10 minutes, blocked in 10% normal goat serum and 0.35% carrageenan lambda in PBS for 30 minutes at room temperature then incubated with a 1:100 dilution of anti-PCNA antibody in blocker overnight. Primary antibody was detected using goat anti-mouse-alexa fluor 546 and fibres were counterstained with DAPI. PCNA positive activated satellite cells were counted under microscope and expressed as a percent of total myonuclei.

mdx mice = test: Mdx in vivo trial
Method: An in vivo trial was performed in which 4 week old mdx mice were injected 3× per week with 300 (6 μg/g) or saline (10 mice in each treatment) for 4 weeks. Body weights were recorded regularly and blood was collected for creatine kinase activity to assess the extent of muscle damage. Grip tests were performed as a measure of strength. After 4 weeks of treatment mice were culled and individual hind limb muscles collected for protein expression analysis—Pax7 & MyoD (satellite cell activation/myogenesis), and histology.
Protein was extracted from three hind limb muscles, biceps femoris, tibialis anterior and gastrocnemius. 15 μg of protein was separated on 4-12% SDS PAGE, transferred to nitrocellulose membrane and immunoprobed with Pax7 and MyoD.
Ten micron transverse sections were cut from the midbelly region of each m. gastrocnemius. Muscle sections were stained with haematoxylin and eosin (H & E) to visualise and measure areas of necrosis and regeneration. These areas were analysed using an Olympus BX50 microscope (Olympus, Tokyo, Japan), a SPOT-RT 4.01 camera and software (Diagnostic Instruments, Sterling Heights, Mich.). Areas were measured using Image-Pro Plus (Media Cybernetics, Silver Spring, Md.).
Blood was collected by tail-bleeding into 75 mm heparinised microhematocrit tubes. Tubes were centrifuged in a Micro-hematocrit centrifuge (Adams) for 5 minutes and then the plasma removed. The recovered plasma was centrifuged again at 2500×g for 5 minutes and then stored at −80° C. until analysis. Plasma was separated from the red blood cells within 2 hours of blood collection to minimise hemolysis. Creatine kinase activity was determined using CK N-acetyl-L-cysteine creatine kinase kit (Beckman Coulter) within 6 weeks of plasma collection. Muscle strength was assessed using a grip strength apparatus (MK-380S, Muromachi; Tokyo, Japan) at the beginning, mid-point and end of the trial. The maximum force exerted by a mouse while being pulled backward by the tail is recorded in Newtons. The mean of three grip tests for each mouse was calculated and the mean maximal force of 10 mice per group was determined.

p-FoxO1 = test: In vitro cancer cachexia trial: p-FoxO1 Western blot in C2C12 myotubes; type: cell-based, murine; settings: with myostatin 6 μg/mL; tested at 30, 60, 90 or 120 μg/mL; 24 hours
Method: C2C12 cells were differentiated for 72 hours in differentiation media (DMEM+2% HS). Following this period of differentiation the myotubes were tested with recombinant myostatin at 6 μg/mL or a combination of both myostatin and 300 recombinant protein at 30, 60, 90 or 120 μg/mL for further 24 hours to determine if 300 can rescue myostatin-mediated muscle wasting in vitro. Gene expression changes of intermediate signalling molecules critical in myostatin-mediated cachexia were analysed. Therefore, protein was isolated from cells and Western blot analysis was performed to measure protein expression levels for p-FoxO1, which we have shown to be a critical signalling intermediates in Myostatin-mediated cachexia (McFarlane et al 2006).

satellite cells [2] = test: Satellite cell activation on single fibres from mice treated in vivo; settings: 6 μg/g BW SC three times a week for six weeks; end of treatment
Method: To test the effect of short term myostatin antagonist treatment on satellite cell activation, single fibres were isolated from mice from each treatment group (as described in example 4, below), and cultured as described above. Satellite cell activation was investigated using anti-PCNA antibodies as described.
An animal trial was conducted to assess the effects of myostatin antagonist 300 in improving muscle function. Sixteen month old mice were divided into two groups of ten. While the control group received saline subcutaneous (SC) injections, the other group received myostatin antagonist 300 SC at 6 μg/gram of BW three times a week for six weeks. The functional improvement of sarcopenic muscle was assessed by measuring grip strength of mice at the end of trial. Grip strength was measured in Newtons.

myostatin = test: C2C12 myoblast proliferation competition assay: wild type myostatin competed with antagonists; type: cell-based; settings: antagonist 1, 5 and 10 μg/ml; myostatin 2.25 μg/ml
Method: […] C2C12 myoblasts were grown in Dulbecco's modified eagle medium according to the standard techniques (Thomas et al, 2000). The myoblast proliferation assay was carried out in uncoated 96-well microtitre plates. C2C12 cultures were seeded at 1000 cells/well. Following a 16-hour attachment period, test media containing either recombinant wild type myostatin or different myostatin antagonists were added and cells were incubated for a further 48 or 72 hour period. For competition assay, wild type myostatin was competed with different concentrations of myostatin antagonists prior to the addition into the media. After the incubation period, proliferation was assessed using methylene blue photometric endpoint assay as previously described (Thomas et al, 2000).

[3] = 6 μg/g 3x per week for 4 weeks, biceps femoris, tibialis anterior and gastrocnemius
[4] = m. gastrocnemius sections, H & E

With “myostatin antagonist 300: recombinant peptide, amino acids 267-300 of bovine myostatin, with N terminal and C terminal tag (SEQ ID NO: 6) (DFGLDCDEHSTESRCCRYPLTVDFEAFGWDWIIA; cysteine pairing not given here; also: N- and C-terminal tags; listed as Homo sapiens)” the “percentage of activated satellite cells” value (satellite cells [1]; single fibres from old (2 year old) mice, 5 μg/ml, 24 or 48 hours) was “Significant increases”, the “percentage of activated satellite cells, comparison among antagonists and times” value (satellite cells [1]; single fibres from old (2 year old) mice, after 48 hours) was “greatest increase” and the “number of satellite cells activated (PCNA positive nuclei)” value (satellite cells [1]; single fibres from young (1 month old) wild type mice, 5 μg/ml, 24 or 48 hours) was “significant increase”. For the same substance, the “MyoD protein level (western blot)” value (mdx mice; [3]) was “substantial upregulation”, the “Pax7 protein level (western blot)” value (mdx mice; [3]) was “substantial upregulation” and the “change in plasma creatine kinase activity from commencement to completion of the trial” value (mdx mice; 4 weeks, vs saline) was “larger decrease”. For the same substance, the grip strength (mdx mice; after 4 weeks of treatment) was “significant increase”, the “percentage necrotic area of muscle” value (mdx mice; [4]) was “Reduced Necrosis” and the “percentage regenerating area of muscle” value (mdx mice; [4]) was “Increased Regeneration”. The “concentration giving maximal rescue of p-FoxO1 expression” value (p-FoxO1) was 90 µg/mL, the “satellite cell activation in fibres isolated from treated mice” value (satellite cells [2]) was “increase observed” and the “rescue of the proliferation-inhibiting effects of myostatin on myoblasts” value (myostatin) was “rescued to levels similar to those observed in the positive control”.
